Experimental data: patent US9670227B2, “Thienopyrimidine derivatives, a process for their preparation and pharmaceutical compositions containing them” (LES LABORATOIRES SERVIER, priority 2013, dated 2017)

Assays:
[1] = tested on: H929 multiple myeloma tumour line; assay: In vitro cytotoxicity, Microculture Tetrazolium Assay; assay type: cell-based; conditions: Homo sapiens, NCI-H929, 48 h, H929 cells, 48 hours exposure, MTT; read-out: IC50 (μM) MTT H929
Method: The cytotoxicity studies were carried out on the H929 multiple myeloma tumour line.
The cells are distributed onto microplates and exposed to the test compounds for 48 hours.

[2] = biological target: Mcl-1 protein (UniProtKB primary accession number: Q07820) (Homo sapiens, UniProt Q07820); assay: Inhibition of Mcl-1 by fluorescence polarisation, Method 1; assay type: binding; conditions: fluorescence polarisation test; Method 2 values are underlined in the patent (underlining not visible here); read-out: IC50 (M) Mcl-1 FP
Mcl-1 protein, sequence (Q07820 whole entry): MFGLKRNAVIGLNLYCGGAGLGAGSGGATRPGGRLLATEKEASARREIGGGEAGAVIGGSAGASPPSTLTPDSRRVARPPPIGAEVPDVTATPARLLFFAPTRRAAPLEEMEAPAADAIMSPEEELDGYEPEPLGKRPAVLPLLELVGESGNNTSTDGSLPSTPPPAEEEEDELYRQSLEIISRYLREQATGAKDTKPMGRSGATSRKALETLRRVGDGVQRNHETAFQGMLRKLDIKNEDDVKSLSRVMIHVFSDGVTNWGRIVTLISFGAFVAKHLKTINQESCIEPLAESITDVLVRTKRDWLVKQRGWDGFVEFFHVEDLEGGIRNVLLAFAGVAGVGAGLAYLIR
In short: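 FP readout of relative binding potency. Mcl-1 5 nM final, fluorescein-labelled ligand 1 nM final; buffer 10 mM HEPES, 150 mM NaCl, 0.05% Tween 20, pH 7.4; 11-pt dilution series, 5% DMSO final.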

| IC50 [2] [M] | SMILES | IC50 [1] [µM] |
| --- | --- | --- |
| 1.9e-09 | Cc1c(-c2c(-c3ccc(F)cc3)sc3ncnc(OC(Cc4ccccc4OCc4ccnc(CC(C)C)n4)C(=O)O)c23)ccc(OCCN2CCN(C)CC2)c1Cl [Example 38, (2R)-2-{[(5Sa)-5-{3-chloro-2-methyl-4-[2-(4-methylpiperazin-1-yl)ethoxy]phenyl}-6-(4-fluorophenyl)thieno[2,3-d]pyrimidin-4-yl]oxy}-3-(2-{[2-(2-methylpropyl)pyrimidin-4-yl]methoxy}phenyl)propanoic acid] | 0.016 |
| 4.8e-09 | Cc1c(-c2c(-c3ccc(F)cc3)sc3ncnc(OC(Cc4ccccc4OCc4ccnc(CC5CC5)n4)C(=O)O)c23)ccc(OCCN2CCN(C)CC2)c1Cl [Example 39, (2R)-2-{[(5Sa)-5-{3-chloro-2-methyl-4-[2-(4-methylpiperazin-1-yl)ethoxy]phenyl}-6-(4-fluorophenyl)thieno[2,3-d]pyrimidin-4-yl]oxy}-3-(2-{[2-(cyclopropylmethyl)pyrimidin-4-yl]methoxy}phenyl)propanoic acid] | 0.015 |
| 5.6e-09 | Cc1c(-c2c(-c3ccc(F)cc3)sc3ncnc(OC(Cc4ccccc4OCc4ccnc(Cc5ccccc5)n4)C(=O)O)c23)ccc(OCCN2CCN(C)CC2)c1Cl [Example 40, (2R)-3-{2-[(2-benzylpyrimidin-4-yl)methoxy]phenyl}-2-{[(5Sa)-5-{3-chloro-2-methyl-4-[2-(4-methylpiperazin-1-yl)ethoxy]phenyl}-6-(4-fluorophenyl)thieno[2,3-d]pyrimidin-4-yl]oxy}propanoic acid] | 0.008 |
| 3.2e-09 | CCCCc1nccc(COc2ccccc2CC(Oc2ncnc3sc(-c4ccc(F)cc4)c(-c4ccc(OCCN5CCN(C)CC5)c(Cl)c4C)c23)C(=O)O)n1 [Example 42, (2R)-3-{2-[(2-butylpyrimidin-4-yl)methoxy]phenyl}-2-{[(5Sa)-5-{3-chloro-2-methyl-4-[2-(4-methylpiperazin-1-yl)ethoxy]phenyl}-6-(4-fluorophenyl)thieno[2,3-d]pyrimidin-4-yl]oxy}propanoic acid] | 0.012 |
| 9.8e-09 | Cc1c(-c2c(-c3ccc(F)cc3)sc3ncnc(OC(Cc4ccccc4OCc4ccnc(CCN(C)C)n4)C(=O)O)c23)ccc(OCCN2CCN(C)CC2)c1Cl [Example 43, (2R)-2-{[(5Sa)-5-{3-chloro-2-methyl-4-[2-(4-methylpiperazin-1-yl)ethoxy]phenyl}-6-(4-fluorophenyl)thieno[2,3-d]pyrimidin-4-yl]oxy}-3-[2-({2-[2-(dimethylamino)ethyl]pyrimidin-4-yl}methoxy)phenyl]propanoic acid] | 0.465 |
| 7.3e-09 | Cc1c(-c2c(-c3ccc(F)cc3)sc3ncnc(OC(Cc4ccccc4OCc4ccnc(COc5ccccc5)n4)C(=O)O)c23)ccc(OCCN2CCN(C)CC2)c1Cl [Example 46, (2R)-2-{[(5Sa)-5-{3-chloro-2-methyl-4-[2-(4-methylpiperazin-1-yl)ethoxy]phenyl}-6-(4-fluorophenyl)thieno[2,3-d]pyrimidin-4-yl]oxy}-3-(2-{[2-(phenoxymethyl)pyrimidin-4-yl]methoxy}phenyl)propanoic acid] | 0.024 |
| 1.1e-08 | COCCN(C)c1nccc(COc2ccccc2CC(Oc2ncnc3sc(-c4ccc(F)cc4)c(-c4ccc(OCCN5CCN(C)CC5)c(Cl)c4C)c23)C(=O)O)n1 [Example 48, (2R)-2-{[(5Sa)-5-{3-chloro-2-methyl-4-[2-(4-methylpiperazin-1-yl)ethoxy]phenyl}-6-(4-fluorophenyl)thieno[2,3-d]pyrimidin-4-yl]oxy}-3-[2-({2-[(2-methoxyethyl)(methyl)amino]pyrimidin-4-yl}methoxy)phenyl]propanoic acid] | 0.122 |
| 7.6e-09 | Cc1c(-c2c(-c3ccc(F)cc3)sc3ncnc(OC(Cc4ccccc4OCc4ccnc(N5CCN(C)CC5)n4)C(=O)O)c23)ccc(OCCN2CCN(C)CC2)c1Cl [Example 50, (2R)-2-{[(5Sa)-5-{3-chloro-2-methyl-4-[2-(4-methylpiperazin-1-yl)ethoxy]phenyl}-6-(4-fluorophenyl)thieno[2,3-d]pyrimidin-4-yl]oxy}-3-(2-{[2-(4-methylpiperazin-1-yl)pyrimidin-4-yl]methoxy}phenyl)propanoic acid] | 0.076 |
| 3.5e-09 | Cc1c(-c2c(-c3ccc(F)cc3)sc3ncnc(OC(Cc4ccccc4OCc4ccnc(-n5ccnn5)n4)C(=O)O)c23)ccc(OCCN2CCN(C)CC2)c1Cl [Example 51, (2R)-2-{[(5Sa)-5-{3-chloro-2-methyl-4-[2-(4-methylpiperazin-1-yl)ethoxy]phenyl}-6-(4-fluorophenyl)thieno[2,3-d]pyrimidin-4-yl]oxy}-3-(2-{[2-(1H-1,2,3-triazol-1-yl)pyrimidin-4-yl]methoxy}phenyl)propanoic acid] | 0.038 |
| 4.4e-09 | Cc1c(-c2c(-c3ccc(F)cc3)sc3ncnc(OC(Cc4ccccc4OCc4ccnc(Oc5ccccc5)n4)C(=O)O)c23)ccc(OCCN2CCN(C)CC2)c1Cl [Example 56, (2R)-2-{[(5Sa)-5-{3-chloro-2-methyl-4-[2-(4-methylpiperazin-1-yl)ethoxy]phenyl}-6-(4-fluorophenyl)thieno[2,3-d]pyrimidin-4-yl]oxy}-3-{2-[(2-phenoxypyrimidin-4-yl)methoxy]phenyl}propanoic acid] | 0.022 |
| 4e-09 | Cc1c(-c2c(-c3ccc(F)cc3)sc3ncnc(OC(Cc4ccccc4OCc4ccnc(OCc5ccncc5)n4)C(=O)O)c23)ccc(OCCN2CCN(C)CC2)c1Cl [Example 59, (2R)-2-{[(5Sa)-5-{3-chloro-2-methyl-4-[2-(4-methylpiperazin-1-yl)ethoxy]phenyl}-6-(4-fluorophenyl)thieno[2,3-d]pyrimidin-4-yl]oxy}-3-(2-{[2-(pyridin-4-ylmethoxy)pyrimidin-4-yl]methoxy}phenyl)propanoic acid] | 0.021 |
| 2.4e-09 | Cc1c(-c2c(-c3ccc(F)cc3)sc3ncnc(OC(Cc4ccccc4OCc4ccnc(OCc5cncn5C)n4)C(=O)O)c23)ccc(OCCN2CCN(C)CC2)c1Cl [Example 60, (2R)-2-{[(5Sa)-5-{3-chloro-2-methyl-4-[2-(4-methylpiperazin-1-yl)ethoxy]phenyl}-6-(4-fluorophenyl)thieno[2,3-d]pyrimidin-4-yl]oxy}-3-[2-({2-[(1-methyl-1H-imidazol-5-yl)methoxy]pyrimidin-4-yl}methoxy)phenyl]propanoic acid] | 0.17 |
| 6.7e-09 | CCCOc1nccc(COc2ccccc2CC(Oc2ncnc3sc(-c4ccc(F)cc4)c(-c4ccc(OCCN5CCN(C)CC5)c(Cl)c4C)c23)C(=O)O)n1 [Example 61, (2R)-2-{[(5Sa)-5-{3-chloro-2-methyl-4-[2-(4-methylpiperazin-1-yl)ethoxy]phenyl}-6-(4-fluorophenyl)thieno[2,3-d]pyrimidin-4-yl]oxy}-3-{2-[(2-propoxypyrimidin-4-yl)methoxy]phenyl}propanoic acid] | 0.01 |
| 4.4e-09 | CCOCCOc1nccc(COc2ccccc2CC(Oc2ncnc3sc(-c4ccc(F)cc4)c(-c4ccc(OCCN5CCN(C)CC5)c(Cl)c4C)c23)C(=O)O)n1 [Example 64, (2R)-2-{[(5Sa)-5-{3-chloro-2-methyl-4-[2-(4-methylpiperazin-1-yl)ethoxy]phenyl}-6-(4-fluorophenyl)thieno[2,3-d]pyrimidin-4-yl]oxy}-3-(2-{[2-(2-ethoxyethoxy)pyrimidin-4-yl]methoxy}phenyl)propanoic acid] | 0.018 |
